Test results as given in US20050202559A1, “Cancer treatment by metabolic modulations” (priority 2002, published 2005).

Legend:
HeLa cells [1] = test: Glycogen assay (glucoamylase hydrolysis, glucose Trinder reagent); type: cell-based, human; conditions: uninfected control HeLa cells, 35 μM roscovitine
Method: (§1) Cultured cells lines were seeded on six or twelve well tissue culture plates. When they reached 70-85% confluence, cells were infected with various amounts of recombinant GL adenovirus or control adenovirus. Adenovirus was added to each well in 300 μl medium and incubated for 2 hours at 37° C., 5% CO2. After incubation, 1.5 ml of medium was added and incubated at 37° C., 5% CO2. The medium was changed every day. At various time points post-infection, viable cells were counted using Trypan Blue and the remaining cells were collected and frozen for subsequent glycogen measurements.
Glycogen Assay: Enzymatic glycogen hydrolysis to glucose was performed according to Keppler and Decker with some modifications (Keppler and Decker, 1984 in: Methods of Enzymatic Analysis, 3rd ed. (Bergmeyer, H. U. Bergmeyer, J., and Grab, M. Eds.), Vol. 6, pp. 11-18, VCH, New York.). In brief, frozen cell pellets were subjected to three rounds of freezing and thawing to disrupt cell membranes. Cell pellets were resuspended in 200 μl 250 mU glucoamylase in 0.2 M sodium acetate buffer, pH 4.8. Lysates were incubated for two hours at 45° C. with shaking. Lysates were cleared by centrifugation at 2500 rpm for 10 min. […] Glucose was then determined with the glucose Trinder colorometric reagent (Sigma, 315-500). The intensity of the color reaction was measured at 505nm using a Molecular Devices VERSAmax microplate reader. […]

HeLa cells [2] = test: Adenovirus infection, Trypan Blue viability cell counts and morphology; type: cell-based, human; conditions: roscovitine-treated versus untreated
Method: as §1
Trypan Blue Viability Cell Counts: Trypan Blue (0.4%, Gibco) was used to stain dead and dying cells. Cells were removed from the tissue culture plates with 0.25% Trypsin-EDTA (Gibco #25200-056) and resuspended in 1 ml phosphate buffered saline (PBS). Manual cell counts were performed with a Neubauer hemocytometer.
Roscovitine Studies: Roscovitine (Calbiochem #557362), [2-(R)-(1-ethyl-2-hydroxyethylamino)-6-benzyl amino-9-isopropylpurine], is a potent and selective inhibitor of the cyclin-dependent kinases Cdk2 and Cdc2. Roscovitine stock solution was prepared in dimethylsulfoxide (DMSO) and stored at −20° C. until use. […]
Cell viability after viral infection was assessed using the Trypan Blue exclusion assay. Cells stained with Trypan Blue and viable cells are counted using a Neubauer hemocytometer. […]

GSK-3 [3] = conditions: cited from earlier work
GSK-3 [4] = conditions: read-out: concentration that inhibits GSK-3 to half maximal activity; cited from earlier work

SMILES: CC[C@H](CO)Nc1nc(NCc2ccccc2)c2ncn(C(C)C)c2n1 [roscovitine, 2-(R)-(1-ethyl-2-hydroxyethylamino)-6-benzyl amino-9-isopropylpurine]
- glycogen accumulation (HeLa cells [1]): no significant increases
- cell viability of AdGL-infected cells (HeLa cells [2]): significantly decreased

SMILES: [Zn+2] [zinc]
- concentration at which GSK-3 is inhibited in cell culture (GSK-3 [3]): 15 mM

SMILES: [Be+2] [beryllium]
- IC50 (GSK-3 [4]): 6 mM
